Reference: PMC9184620, “TAS1553, a small molecule subunit interaction inhibitor of ribonucleotide reductase, exhibits antitumor activity by causing DNA replication stress” (Communications Biology, 2022)

Assays:
[1] = test system: HCC38 cells; assay: Cell proliferation assay (CellTiter-Glo), HCC38; assay type: cell-based; conditions: Homo sapiens, 72 h; HCC38, 3 days exposure
Description: Next, we evaluated both concentration-dependent and time-dependent effects of TAS1553 on the dATP pool in HCC38 and MV-4-11 cell lines using absolute quantification. After 2 h of TAS1553 exposure, there was a concentration-dependent reduction of intracellular dATP pool in both cell lines (Fig. 2c). Furthermore, the intracellular dATP pool was reduced within 30 minutes when treated with TAS1553 at 1 or 10 µmol/L in both cell lines (Fig. 2d), consistent with its inhibitory effect on the protein-protein interaction (Fig. 2a).
Cell proliferation assay was performed as reported previously. Briefly, cells were plated and incubated for 1 day, followed by 3 days of exposure to the compound. After compound exposure, viable cells were detected by using the CellTiter-Glo luminescent cell viability assay (Promega). GI50 values were calculated using the SAS software package. The experiment was performed in triplicates.

[2] = test system: HCC38 and MV-4-11 cells; assay: Immunoblotting of DNA replication stress and apoptosis markers; assay type: cell-based, human; conditions: both cell lines
Description: Because dATP is a critical metabolite for DNA replication, we next examined whether TAS1553 caused DNA replication stress. We evaluated phosphorylation of Chk1 at Ser345 in HCC38 and MV-4-11 cells by treating them with TAS1553 for 2 h. […] Because phosphorylated RPA2 at Thr21 binds to single-strand DNA at the stalled replication fork[42], TAS1553 may cause the replication fork stalling. To test this possibility, we analyzed the nuclear localization of phosphorylated RPA2 at Thr21.
Next, we examined the effect of TAS1553 on apoptosis induction in HCC38 and MV-4-11 cells. We treated TAS1553 at 1 or 10 µmol/L for 24 h and analyzed the time-dependent change of cleaved PARP and cleaved caspase-3 (Fig. 2g). Compared with control cells (0 h), phosphorylation of Chk1 at Ser345 was increased after 1 h of TAS1553 treatment at 1 and 10 μmol/L in both cell lines. Phosphorylation of RPA2 was also detected after 2 h of treatment with TAS1553 at 10 μmol/L. Following the induction of replication stress and fork stalling, cleaved PARP and cleaved caspase-3 levels were increased in both cell lines after 4 h of TAS1553 treatment at 10 μmol/L or after 8 h of treatment at 1 μmol/L.
Immunoblotting analysis was performed as reported previously. […] Proteins were separated by SDS-PAGE and analyzed by Western blotting. […] The signals were detected with the ImageQuant LAS 4010 (GE Healthcare UK Ltd.).

[3] = test system: 68 proteins (ion channels, transporters, nuclear receptors, G protein-coupled receptors); assay: Eurofins LeadProfilingScreen panel assay; assay type: binding; conditions: 10 μmol/L; significant defined as >50% inhibition for each target protein
Description: The binding affinity of TAS1553 to the R1 subunit was investigated using surface plasmon resonance (SPR) binding analysis. […] Next, we evaluated the inhibitory effect of TAS1553 against the enzymatic activity of RNR, consisting of R1 and R2 recombinant proteins. RNR activity was determined by its ability to reduce cytidine diphosphate (CDP) to deoxycytidine diphosphate (dCDP), based on a previous report. […] In addition to the inhibitory effect on RNR, TAS1553 was evaluated in a Eurofins LeadProfilingScreen panel assay including 68 proteins, such as ion channels, transporters, nuclear receptors, and G protein-coupled receptors, to examine its potential adverse activity.

For `Cc1ccc(F)c([C@@H](C)[C@H](NS(=O)(=O)c2ccc(Cl)cc2C(N)=O)c2n[nH]c(=O)o2)c1C` [TAS1553, 5-chloro-2-{N-[(1S,2R)-2-(6-fluoro-2,3-dimethylphenyl)-1-(5-oxo-4,5-dihydro-1,3,4-oxadiazol-2-yl)propyl]sulfamoyl}benzamide], the GI50 [1] was 0.352 µM, the “phosphorylation of Chk1 at Ser345” value ([2]; 1 µmol/L, 2 h) was “markedly induced” and the “cleaved PARP and cleaved caspase-3 levels” value ([2]; after 4 h at 10 μmol/L or 8 h at 1 μmol/L) was “increased”. The “inhibition in 68-protein panel” value [3] was “no significant inhibition”.
